Patent US20240115554A1, “METHODS FOR TREATING OBSTRUCTIVE HYPERTROPHIC CARDIOMYOPATHY” (Cytokinetics, Incorporated, priority 2022, published 2024)
“And” between values parts separate entries of the source, which are not always exact repeats. Equal values may be shown once. “Also recorded” adds a separate entry of the source.

How the values were obtained:
healthy adults = test: Phase 1 echocardiography pharmacodynamics (LVEF); format: in vivo, human
Method: Echocardiography. For PD assessments of LVEF, echocardiograms for the SAD and MAD cohorts were interpreted by the echocardiography core laboratory and used for all data analysis and dose level review decisions while immediate local interpretation of the echocardiograms was performed for safety monitoring. […] Echocardiograms on day 3 (48 h after dosing) were obtained only if the 24 h LVEF had not returned to near or above baseline, as determined by the investigator. In the MAD cohorts, echocardiograms were obtained on day −1, pre-dose on day 1, and at 1.5 h post dose on days 2, 4, and 9, and at 1.5, 24, and 72 h post dose on day 14 (for the 5-mg and 10-mg cohorts) or on day 17 (for the 7.5-mg cohort). Echocardiograms were obtained 3 days after the last dose (on day 17 or 20) only if the participant's prior LVEF was not near or above baseline, as determined by the investigator. […] Descriptive statistics of the echocardiographic parameters were generated using SAS® Version 9.3 or higher. Dose-response analysis was performed using analysis of covariance (ANCOVA) to identify the least-squares mean difference (aficamten minus placebo). To analyze the impact of drug dose on echocardiographic parameters in the SAD and MAD cohorts, an inferential analysis was conducted on the PD analysis set using linear mixed models for repeated-measures analysis of covariance (ANCOVA). The ANCOVA used baseline value as a covariate, included treatment, time-point, and time-point-by-treatment interaction as fixed effects, and change from baseline as the dependent variable. The unstructured variance-covariance structure was used, and the model accounted for the time-point repeated measures. The ANCOVA analysis was conducted separately for each study part and for each PD parameter. The least-squares means, the difference in least squares means (active minus placebo), and the associated 2-sided 95% CIs were presented for each comparison. Analyses of concentration ‘bin’ and exposure-response were also performed using ANCOVA. SAS® PROC MIXED was used for all comparative analyses. […] A concentration bin ANCOVA was conducted using linear mixed models for repeated-measures analyses with concentration bin group as a fixed effect, baseline PD parameters as a covariate, change from baseline as the dependent variable, and a random intercept to adjust for the repeated measures. The unstructured variance-covariance structure was used. […] The ANCOVA compared the change in PD parameters between each bin versus the pooled placebo group. The least-squares means, the difference in least squares means (bin group minus placebo), and the associated 2-sided 95% CIs were presented for each comparison. The ANCOVA analysis was conducted separately for each study part. For all time-points at which both PK data and PD measures were available, the time-points were pooled for the analysis. […] From least to greatest, the data were then divided into 5 groups of observations (‘bins’), each consisting of 20% of the data points. Each bin was treated as a separate group. […] The above analysis was then repeated using concentration as a continuous variable to estimate the exposure-response trend. Both a random intercept effect and a random concentration effect were added to the ANCOVA. The estimate of the concentration slope, with corresponding 2-sided 95% CIs, and the ANCOVA analyses were presented for each study part.

[1] = Phase 1 plasma aficamten pharmacokinetics (SAD, MAD, CYP2D6-PM, food-effect cohorts); format: in vivo, human; conditions: for CL/F: mean ± SD
Method: CYP2D6 poor metabolizer cohort.
CYP2D6 genotypes were determined at screening for all study participants; those identified as CYP2D6-PMs were excluded from the SAD and MAD cohorts but were invited to participate in the CYP2D6-PM cohort. The first individual in the CYP2D6-PM cohort was dosed after the SAD 25-mg cohort (FIG. 2). […] Nine participants were randomized (7:2) with a sentinel dosing group consisting of the first 2 participants treated.
Food-effect cohort. […] Participants were randomized in a 1:1 ratio to 1 of 2 sequences: fasted/fed or fed/fasted.
Pharmacokinetic analyses. For all study groups, blood samples for PK assessment were obtained pre-dose, up to 12 times daily on day 1, and then at regular intervals throughout the study. Blood samples were collected according to the following schedule: SAD Cohorts: Day 1: pre-dose and 0.25, 0.5, 1, 1.5, 2, 2.5, 3, 4, 6, 8, 12, 16, 24, 36, 48, 72, 96, and 216 h post dose. […] CYPD6-PM Cohort: Day 1: pre-dose and 0.25, 0.5, 1, 1.5, 2, 2.5, 3, 4, 6, 8, 12, 16, 24, 36, 48, 72, 96, 216, 312, and 552 h post dose. Food-Effect Cohort: Day 1: pre-dose and 0.25, 0.5, 1, 1.5, 2, 2.5, 3, 4, 6, 8, 12, 16, 24, 36, 48, 72, 96, 144, and 216 h post dose. Standard non-compartmental methods were used to calculate PK parameters using Phoenix® WinNonlin® Version 7.0; actual sample collection times were utilized.
For the MAD cohort, the parameters were AUC24 and Cmax on day 1, plus AUC to the […] (AUCtau) and Cmax on day 14 or 17. The statistical linear relationship between the ln-transformed PK parameters and the ln-transformed dose was verified by including the quadratic (ln Dose)^2 and cubic (ln Dose)^3 effects. […] The dose-proportionality analysis was performed using SAS® PROC MIXED.
An analysis of variance (ANOVA) model was conducted separately for each dose level; day was included as the fixed effect. Helmert contrasts were developed such that each time-point was compared with the mean of the subsequent time-points.

[2] = SAD 50 mg (n = 11), change from baseline at […]

Compound: CCc1nc(-c2ccc3c(c2)CC[C@H]3NC(=O)c2cnn(C)c2)no1 [aficamten, (R)—N-(5-(5-ethyl-1,2,4-oxadiazol-3-yl)-2,3-dihydro-1H-inden-1-yl)-1-methyl-1H-pyrazole-4-carboxamide]
- plasma aficamten concentration with minimal suppression of LVEF in most participants (healthy adults; MAD cohorts): < 180 ng/mL
- time within which LVEF returned to baseline in participants whose LVEF fell below 50% (healthy adults; Phase 1): ≤ 24 h
- E, Mean (healthy adults; SAD 50 mg (n = 11), […]): 64 cm/s
- A, CFB Mean (healthy adults; [2]): 2.5 cm/s
- E, CFB Mean (healthy adults; [2]): -2.7 cm/s
- Heart rate, CFB Mean (healthy adults; [2]): 0.5 bpm
- IVCT, CFB Mean (healthy adults; [2]): 0.4 ms
- IVRT, CFB Mean (healthy adults; [2]): 0.5 ms
- LAV, CFB Mean (healthy adults; [2]): 0 mL
- LV EDV, CFB Mean (healthy adults; [2]): 6.6 mL
- LV ESV, CFB Mean (healthy adults; [2]): 8.1 mL
- LV ET, CFB Mean (healthy adults; [2]): 1.9 ms
- LV SV, CFB Mean (healthy adults; [2]): -6.2 mL
- LVEF, CFB Mean (healthy adults; [2]): −5.8%
- e′ lateral, CFB Mean (healthy adults; [2]): -1.3 cm/s
- participants with absolute reduction in LVEF of ≥5% from baseline (healthy adults; SAD 1-, 10-, or 25-mg cohorts): no participants
- participants with reduction in LVEF to <50% (healthy adults; SAD 50-mg cohort (2 of 11)): 18%
- LVEF of the participants with LVEF <50% (healthy adults; SAD 50-mg cohort, 2 participants, core laboratory assessment): 48.2% and 45.5%
- mean maximum reduction in LVEF (healthy adults; SAD 50-mg group, […] post dose): 5.8%
- participants with reduction in LVEF to <50% (healthy adults; SAD 75-mg cohort (1 of 1)): 100%
- relationship of plasma concentration to change in LVEF (healthy adults; SAD cohorts): trend toward a decrease in LVEF
- participants with LVEF <45% (healthy adults; SAD cohorts, core laboratory): Only the participant in the 75-mg cohort experienced LVEF <45%
- reduction in LVEF to <50% (healthy adults; any of the MAD cohorts, core laboratory assessment): not observed
- decrease in mean LVEF from baseline (least-squares mean difference) (healthy adults; single 50-mg dose, […] post dose): 5.5%
- LVEF after reduction (healthy adults; single dose of 75 mg, 1 participant, approximately […] after dosing): 34.1%
- reduction in LVEF (healthy adults; single participant, 75 mg, […] post dose): 31.5%
- impact of food and CYP2D6-PM phenotype on pharmacokinetics ([1]; 10 mg single dose): Neither food nor CYP2D6-PM phenotype had a clinically meaningful impact on pharmacokinetics
- steady state achieved by the end of day ([1]; 5-mg and 7.5-mg doses once daily): 12 days
- steady state achieved by the end of day ([1]; 10-mg dose once daily): 10 days
- CL/F ([1]; CYP2D6 Poor Metabolizers, 10 mg single dose): 3.6 ± 1.4 L/h
- maximum time to maximum observed concentration across all participants ([1]; SAD cohorts): 4.0 h
- increase of Cmax when taken with food ([1]; food-effect cohort, 10 mg): approximately 30%
- CL/F ([1]; food-effect cohort, 10 mg, Fasted (n = 4)): 2.8 ± 0.6 L/h
- CL/F ([1]; food-effect cohort, 10 mg, Fed (n = 7)): 3.1 ± 0.9 L/h
- time within which steady state is achieved ([1]; once-daily dosing): ≤ 2 weeks
- CL/F ([1]; single oral dose 3 mg): 4.2 ± 3.1 L/h
- CL/F ([1]; single oral dose 10 mg): 3.0 ± 0.7 L/h
- CL/F ([1]; single oral dose 25 mg): 3.6 ± 0.5 L/h
- CL/F ([1]; single oral dose 40 mg): 3.4 ± 0.6 L/h
- CL/F ([1]; single oral dose 50 mg): 3.8 ± 1.1 L/h
- dose proportionality of plasma concentrations / exposure ([1]; single oral doses 1 mg to 50 mg): increased in a dose-proportional manner; also recorded: linear kinetics
